Measured values: the supplement of paper PMC8612539
Values after ≈ are worked out from the molar mass of the structure shown.

System: Mannheimia haemolytica
Experiment: minimum inhibitory concentration (MIC)
Protocol: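 Broth microdilution MIC (Sensititre BOPO7F bovine plate, CLSI methods) of 19 antimicrobials against field isolates of P. multocida, M. haemolytica, H. somni (deep nasopharyngeal swabs) and E. coli, Enterococcus spp. (rectal swabs) from weaned dairy heifers. Incubation 16-24 h at 35 C. MIC is the lowest concentration preventing visible growth. Values with <= or > lie at the tested range limits. Trimethoprim-sulfamethoxazole is given as the trimethoprim component of a 1:19 mixture.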

CN[C@@H]1[C@H](O)[C@H](NC)[C@H]2O[C@@]3(O)C(=O)C[C@@H](C)O[C@H]3O[C@@H]2[C@H]1O [Spectinomycin]
Conditions | minimum inhibitory concentration [µg/mL]
isolate (source animal id): 8 | 32 (≈ 96.3 µM)
isolate (source animal id): 13 | 32 (≈ 96.3 µM)
isolate (source animal id): 18 | 32 (≈ 96.3 µM)
isolate (source animal id): 21 | 32 (≈ 96.3 µM)
isolate (source animal id): 25 | 32 (≈ 96.3 µM)
isolate (source animal id): 27 | 32 (≈ 96.3 µM)
isolate (source animal id): 28 | > 64
isolate (source animal id): 30 | 32 (≈ 96.3 µM)
isolate (source animal id): 31 | > 64
isolate (source animal id): 32 | 32 (≈ 96.3 µM)
isolate (source animal id): 34 | 32 (≈ 96.3 µM)
isolate (source animal id): 36 | 32 (≈ 96.3 µM)
isolate (source animal id): 37 | 32 (≈ 96.3 µM)
isolate (source animal id): 40 | 32 (≈ 96.3 µM)
isolate (source animal id): 41 | 32 (≈ 96.3 µM)
isolate (source animal id): 43 | 32 (≈ 96.3 µM)
isolate (source animal id): 46 | 32 (≈ 96.3 µM)
isolate (source animal id): 49 | 32 (≈ 96.3 µM)
isolate (source animal id): 50 | 32 (≈ 96.3 µM)
isolate (source animal id): 51 | 32 (≈ 96.3 µM)
isolate (source animal id): 52 | 32 (≈ 96.3 µM)
isolate (source animal id): 53 | 32 (≈ 96.3 µM)
isolate (source animal id): 55 | 32 (≈ 96.3 µM)
isolate (source animal id): 56 | 32 (≈ 96.3 µM)
isolate (source animal id): 57 | > 64
isolate (source animal id): 100 | > 64
isolate (source animal id): 103 | 32 (≈ 96.3 µM)
isolate (source animal id): 107 | 32 (≈ 96.3 µM)
isolate (source animal id): 108 | > 64
isolate (source animal id): 112 | 32 (≈ 96.3 µM)
isolate (source animal id): 113 | > 64
isolate (source animal id): 121 | 32 (≈ 96.3 µM)
isolate (source animal id): 122 | 32 (≈ 96.3 µM)
isolate (source animal id): 123 | > 64
isolate (source animal id): 126 | 32 (≈ 96.3 µM)
isolate (source animal id): 133 | 32 (≈ 96.3 µM)
isolate (source animal id): 135 | > 64
isolate (source animal id): 138 | 32 (≈ 96.3 µM)
isolate (source animal id): 141 | > 64
isolate (source animal id): 142 | 32 (≈ 96.3 µM)
isolate (source animal id): 145 | 16 (≈ 48.1 µM)
isolate (source animal id): 149 | 32 (≈ 96.3 µM)
isolate (source animal id): 151 | 32 (≈ 96.3 µM)
isolate (source animal id): 152 | 16 (≈ 48.1 µM)
isolate (source animal id): 154 | 32 (≈ 96.3 µM)
isolate (source animal id): 159 | 16 (≈ 48.1 µM)
isolate (source animal id): 162 | 16 (≈ 48.1 µM)
isolate (source animal id): 170 | 32 (≈ 96.3 µM)
isolate (source animal id): 171 | 32 (≈ 96.3 µM)
isolate (source animal id): 172 | 32 (≈ 96.3 µM)
isolate (source animal id): 173 | 32 (≈ 96.3 µM)
isolate (source animal id): 179 | 32 (≈ 96.3 µM)
isolate (source animal id): 180 | 32 (≈ 96.3 µM)
isolate (source animal id): 183 | 32 (≈ 96.3 µM)
isolate (source animal id): 186 | 32 (≈ 96.3 µM)
isolate (source animal id): 187 | 32 (≈ 96.3 µM)
isolate (source animal id): 188 | 32 (≈ 96.3 µM)
isolate (source animal id): 190 | 32 (≈ 96.3 µM)
isolate (source animal id): 191 | 32 (≈ 96.3 µM)
isolate (source animal id): 192 | 32 (≈ 96.3 µM)
isolate (source animal id): 201 | 32 (≈ 96.3 µM)
isolate (source animal id): 202 | 32 (≈ 96.3 µM)
isolate (source animal id): 209 | 32 (≈ 96.3 µM)
isolate (source animal id): 211 | 32 (≈ 96.3 µM)
isolate (source animal id): 220 | 32 (≈ 96.3 µM)
isolate (source animal id): 221 | 32 (≈ 96.3 µM)
isolate (source animal id): 223 | ≤ 8
isolate (source animal id): 233 | 32 (≈ 96.3 µM)
isolate (source animal id): 237 | 32 (≈ 96.3 µM)
isolate (source animal id): 241 | 32 (≈ 96.3 µM)
isolate (source animal id): 252 | 32 (≈ 96.3 µM)
isolate (source animal id): 253 | > 64
isolate (source animal id): 259 | 32 (≈ 96.3 µM)
isolate (source animal id): 260 | > 64
isolate (source animal id): 262 | 32 (≈ 96.3 µM)
isolate (source animal id): 282 | 32 (≈ 96.3 µM)
isolate (source animal id): 287 | 32 (≈ 96.3 µM)
